Molecules are shown by their SMILES. Like-named read-outs stand apart in the source and are kept apart here.

Series [1] has as its system H460 cell line with high expression of AKR1C3 enzyme. The following applies: cited from earlier work.
For series [2] the following is noted: intraperitoneal injection, once every 3 days, for four consecutive doses; literature; cited from earlier work.
Another series relates to H460 cancer cells. The series is described as follows: Inhibition of H460 cancer cells in the presence or absence of AKR1C3 inhibitor AST-3021 (section 2.1). The format is cell-based, human. Particulars: for IC50: Homo sapiens. As for the experimental part:
The experimental scheme was as follows: • 1) H460 cell suspension was added to a 96-well plate with 100 μL per well at a cell density of 2000/well. • 2) Cells were incubated in an incubator of 37° C., 5% CO2 overnight. • 3) Compound treatment
Combined administration: 24 hours after cell plating, 98 μL of growth medium per well was added. 1 μL of AST-3021 was added to each well (final concentration 3 μM), and the plate was shaken gently to ensure even mixing, and then placed into an incubator; after 2 hours, 1 μL of the test compound at different concentrations was added, and the plate was shaken gently to ensure even mixing, and then placed into an incubator of 37° C., 5% CO2.
Administration of the drug alone: 24 hours after cell plating, 99 μL of growth medium per well was added.
In order to further verify that the compound was activated specifically by human AKR1C3 (aldosterone reductase family 1 member C3), the compound was added following the pretreatment of cells with the specific AKR1C3 enzyme inhibitor AST-3021 (3 μM), and the effect of the presence of AST-3021 on the proliferation of H460 cancer cells was tested
IC50 data of inhibitory effect of the compounds gemcitabine and H11 on H460 cancer cells in the presence or absence of the AKR1C3 inhibitor AST-3021 is shown in Table 2 and Table 3.

For series [3], the system named is HuPrime pancreatic cancer xenograft model PA1222. The series is described as follows: In vivo pharmacodynamic experiment in HuPrime pancreatic cancer PA1222 PDX model. The following applies: for Tumor volume (mm^3) (x ± S): Group 2, 80 mg/kg i.p.
Series [4] is described as follows: Plasma stability in rat plasma. The following applies: for Remaining percentage (%): rat plasma. As to the method: 1 mM working solution of the test compound was prepared in DMSO. 1 mM working solution of propantheline was prepared in acetonitrile. 1 mM working solution of lovastatin (mevinolin) was prepared in DMSO. Propantheline was used as a positive control for human, monkey, dog, and mouse plasma stability tests. Lovastatin was a positive control for rat plasma stability test.
• A. 398 μL of plasma per well was added to the culture plate, and the plate was preheated at 37° C. for 15 minutes. • B. After preincubation, 2 μL of working solution (test solution or control solution) was added to the 398 μL plasma mentioned above, resulting in a final concentration of 5 μM. The final concentration of organic solvents was 0.5%. The test was conducted in duplicate. • C. The reaction sample was incubated at 37° C. • D. 50 μL was extracted from the reaction sample at 0, 15, 30, 60, and 120 minutes, respectively. […] 100 μL of supernatant was taken and transferred to a new plate. The supernatant was diluted with ultrapure water according to the LC-MS signal response and peak shape.
Samples were analyzed with LC-MS/MS. All calculations were conducted using Microsoft Excel. The peak area ratio was determined from the extracted ion chromatogram. • (1) The percentage of the remaining compound at each time point was calculated with the following formula: […]
wherein the slope value k was determined by linear regression of the natural logarithm of the remaining percentage of the parent drug vs. incubation time curve.

Series [5] in a line: Plasma stability in monkey plasma. Type of series: in vitro ADME. As for the experimental part:
(§1) The final concentration of organic solvents was 0.5%. The test was conducted in duplicate. • C.
(§2) Samples were analyzed with LC-MS/MS. All calculations were conducted using Microsoft Excel.

Series [6] in a line: Plasma stability in mouse plasma. The format is in vitro ADME. As to the method: as §1, §2
A short description of series [7]: Plasma stability in human plasma. The format is in vitro ADME. As for the experimental part: as §1, §2
Series [8] can be described thus: Plasma stability in dog plasma. Type of series: in vitro ADME. As for the experimental part: as §1, §2
Setting [9] is: Group 2, 80 mg/kg i.p. Q3D×4, Day 32.

`CCN(CCCCBr)P(=O)(OCc1ccc([N+](=O)[O-])c(Oc2ccc(-c3ccccc3)cc2)c1)OCC1OC(n2ccc(N)nc2=O)C(F)(F)C1O` (stereo not drawn) [TH3057]: the IC50 in [1] (with addition of AKR1C3 enzyme inhibitor) was 5000 nM; in series [1] (without AKR1C3 enzyme inhibitor), 200 nM.

For `Nc1ccn([C@@H]2O[C@H](CO)[C@@H](O)C2(F)F)c(=O)n1` [gemcitabine], the MTD in [2] is given as 120 mg/kg. Besides, in the series with H460 cancer cells (H460), the Specific activation ratio was 1.08. For the same compound, the IC50 in the series on H460 cancer cells (NCI-H460, 72 h, H460, 72 hours, read-out: IC50 (nmol/L) AST-3021 not added) was 13.2 nmol/L; with H460 cancer cells (NCI-H460, H460, AST-3021 3 μM, read-out: IC50 (nmol/L) AST-3021 added) it was 14.2 nmol/L. Also, the “Relative tumor volume (x ± S)” value in series [3] (setting [9]) is 0.06 ± 0.04. Moreover, the “T/C (%)” value in series [3] (setting [9]) is recorded as 0.97%. In [3] (setting [9]), the “TGI (%)” value came to 99.03%. The “complete tumor inhibition rate” value in series [3] (setting [9]) came to 60%. Besides, the “Tumor volume (x ± S)” value in [3] (Group 2, 80 mg/kg i.p. Q3D×4, Day 32, mean ± standard error) is reported as 6.79 ± 4.33. Besides, the “Tumor volume (mm^3) (x ± S)” value stood at 102.95 mm^3 in [3] (day 0); 104.07 mm^3 in [3] (day 4); 74.43 mm^3 in series [3] (day 7); 38.92 mm^3 in series [3] (day 11); 24.66 mm^3 in [3] (day 14); 17.66 mm^3 in series [3] (day 18). The “Tumor volume (mm^3) (x ± S)” value in [3] (day 21) amounted to 12.13 mm^3; in series [3] (day 25), 10.23 mm^3; in [3] (day 28), 7.97 mm^3; in [3] (day 32) it was 6.79 mm^3.

For `CC[C@H](C)C(=O)O[C@H]1C[C@@H](C)C=C2C=C[C@H](C)[C@H](CC[C@@H]3C[C@@H](O)CC(=O)O3)[C@H]21` [lovastatin, reference compound], the “Remaining percentage (%)” value in series [4] (0 min, 5 μM, 37° C.) is given as 100.00%; in series [4] (15 min), 5.27%; in series [4] (30 min), 0.52%; in series [4] (60 min), 0.45%; in series [4] (120 min) it was 0.34%. For the same compound, the “t1/2” value in series [4] (rat, plasma) turned out to be 3.53 min.

For the compound `CC(C)[N+](C)(CCOC(=O)C1c2ccccc2Oc2ccccc21)C(C)C` [propantheline, reference compound], the “Remaining percentage (%)” value in [5] (0 min, 5 μM, 37° C.) was 100.00%; in [5] (15 min), 90.53%; in [5] (30 min), 77.57%; in series [5] (60 min), 70.39%; in series [5] (120 min) it was 49.22%; in series [6] (0 min, 5 μM, 37° C.), 100.00%. Moreover, the “Remaining percentage (%)” value is recorded as 69.89% in series [6] (15 min); 43.11% in [6] (30 min); 15.28% in [6] (60 min); 2.03% in series [6] (120 min); 100.00% in [7] (0 min, 5 μM, 37° C.); 81.24% in series [7] (15 min). For the same compound, the “Remaining percentage (%)” value in [7] (30 min) stood at 59.99%; in series [7] (60 min), 32.76%; in series [7] (120 min) it was 7.75%; in series [8] (0 min, 5 μM, 37° C.), 100.00%; in series [8] (15 min), 101.04%; in series [8] (30 min), 87.98%. For the same compound, the “Remaining percentage (%)” value in series [8] (60 min) is 85.64%; in series [8] (120 min) it was 66.64%. Besides, the half-life at 5 µM in series [5] (monkey) is 121 min; in series [6], 21.8 min; in series [7] (human), 36.6 min; in series [8] (dog), 203 min.

The values are drawn from patent publication US20240368209A1, “GEMCITABINE ANTICANCER DERIVATIVE AND ANTICANCER PHARMACEUTICAL USE” (ASCENTAWITS PHARMACEUTICALS, LTD., priority 2021, published 2024).
